15 molecules from PubChem BioAssay (NCI) can be followed below.

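Dose response: 5 concentrations. Exposure: 48 h. Format: 96-well plates. Endpoint: linear interpolation; highest concentration if not reached. TGI denotes the concentration required for complete inhibition of growth.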

What all share (experiment): NCI tumour cell line growth inhibition, 48 h
In experiment [1] the test system is A549 NSCLC.
Experiment [2] concerns COLO 205 colon.
The test system of experiment [3] is DU-145 prostate.
Experiment [4] deals with EKVX NSCLC.
Experiment [5] relates to HL-60(TB) leukemia.
For experiment [6], the system named is HOP-62 NSCLC.
In experiment [7] the test system is HS 578T breast.
Experiment [8] deals with LOX IMVI melanoma.
The subject of experiment [9] is M14 melanoma.
For experiment [10], the system named is MCF7 breast.
Experiment [11] deals with NCI-H226 lung.
Experiment [12] deals with NCI-H460 lung.
Experiment [13] concerns OVCAR-3 ovarian.
In experiment [14] the test system is OVCAR-5 ovarian.
The test system of experiment [15] is OVCAR-8 ovarian.
Experiment [16] concerns RXF 393 renal.
Experiment [17] deals with SF-295 CNS.
Experiment [18] relates to SN12C renal.
Experiment [19] deals with SW-620 colon.

`COc1ccc2cc(-c3ccc(OC)c(OC)c3)c(=O)oc2c1`: the TGI in [1], in [2], in experiment [3], in experiment [4], in experiment [5] and in experiment [6] was > 100 µM throughout. The TGI in experiment [7], in experiment [8], in [9], in experiment [10], in experiment [11] and in experiment [12] was > 100 µM throughout. Besides, the TGI in experiment [13] is > 100 µM; in experiment [14] it was > 100 µM; in [15], > 100 µM; in experiment [16] it was 68.3 µM; in experiment [17] it was > 100 µM; in [18], > 100 µM. Also, in [19], the TGI was > 100 µM.
On to `C/C(=N/NC(=S)N1CCCCCC1)c1ccccc1O`, for which the TGI in experiment [1] was > 100 µM; in [2], > 49.3 µM; in experiment [3], > 69.4 µM; in experiment [4], > 100 µM; in experiment [5], 7.8 µM; in [6] it was 56.7 µM. Also, the TGI in [7] was > 100 µM; in [8] it was > 78.7 µM; in experiment [9], 11 µM; in experiment [10], > 100 µM; in [11], > 59.5 µM; in experiment [12] it was 25.2 µM. Also, the TGI in experiment [13] was > 40.9 µM; in experiment [14], > 100 µM; in experiment [15], > 100 µM; in [16], > 93 µM; in [17], > 100 µM; in experiment [18], 40.9 µM. The TGI in experiment [19] is > 100 µM.
As for `CSc1nc(C)cc(N(C)c2ccccc2)n1`, the TGI in experiment [1] is > 100 µM; in [2], > 100 µM; in experiment [3] it was > 100 µM; in experiment [4], > 100 µM; in experiment [5] it was 61.9 µM; in [6], > 100 µM. The TGI in experiment [7] was 86.6 µM; in experiment [8], > 100 µM; in experiment [9] it was > 100 µM; in experiment [10], 75.4 µM; in experiment [11], 93.9 µM; in experiment [12], > 100 µM. For the same molecule, the TGI was 97.3 µM in experiment [13]; > 100 µM in experiment [14]; 93 µM in experiment [15]; > 100 µM in experiment [16]; > 100 µM in experiment [17]; > 100 µM in experiment [18]. In experiment [19], the TGI is > 100 µM.
Turning to `CCOC(=O)c1c(Nc2ccccc2)sc2cccnc12`, the TGI in experiment [1] is 81.1 µM; in [2] it was > 60.5 µM; in [3] it was > 69.7 µM; in experiment [4], 59 µM; in experiment [5], 51.3 µM; in experiment [6] it was > 81 µM. Further, the TGI in experiment [7] was > 69.1 µM; in experiment [8], 44.6 µM; in experiment [9], 26.4 µM; in experiment [10], 59.5 µM; in experiment [11], 57.1 µM; in [12] it was > 88.8 µM. Moreover, the TGI in [13] was 48.7 µM; in experiment [14] it was 79.4 µM; in experiment [15], 64 µM; in experiment [16], > 86.6 µM; in [17], 49.9 µM; in experiment [18], 45 µM. In addition, the TGI in experiment [19] is > 100 µM.
For the molecule `Cc1cc2c(cc1C)C(=O)c1ncccc1C2=O`, the TGI in experiment [1] was > 100 µM; in [2] it was 82.4 µM; in experiment [3] it was > 100 µM; in experiment [4] it was > 100 µM; in experiment [5], 30.6 µM; in experiment [6], > 100 µM. Further, the TGI in [7], in [8], in experiment [9], in experiment [10], in experiment [11] and in experiment [12] was > 100 µM throughout. The TGI in [13] is 9.65 µM; in [14], > 100 µM; in experiment [15], > 100 µM; in experiment [16] it was > 100 µM; in [17], > 100 µM; in experiment [18] it was > 100 µM. For the same molecule, the TGI in experiment [19] is > 100 µM.
For the molecule `C#CCn1c(=O)c(C)cn(/C(=C/C(=O)OCC)C(=O)OCC)c1=O`, the TGI was 32.4 µM in experiment [1]; > 22.7 µM in experiment [2]; 29.5 µM in experiment [3]; 21.1 µM in experiment [4]; > 100 µM in [5]; 30.5 µM in [6]. Further, the TGI in experiment [7] turned out to be 30 µM; in experiment [8] it was 29.8 µM; in experiment [9] it was 14 µM; in experiment [10], 13.7 µM; in experiment [11] it was 4.9 µM; in [12], 7.83 µM. In addition, the TGI in experiment [13] amounted to 19.6 µM; in [14], 16 µM; in [15], 5.56 µM; in [16], 2.01 µM; in [17], 40.5 µM; in [18], 26.2 µM. In addition, the TGI in [19] worked out at 4.16 µM.
`C/C=C1/CN2CCC34C5=CC(=O)C(c6cc7c(cc6OC)N(C)C6=C(C(=O)OC)CC8(CC)CCCN9CCC67C98)=CC5=NC23CCC1C4C(=O)OC` (stereo not given): the TGI in [1] worked out at 30.3 µM; in experiment [2], 22.9 µM; in experiment [3], 37.2 µM; in [4] it was 28.1 µM; in experiment [5], 4.22 µM; in experiment [6], 31.5 µM. Moreover, the TGI in experiment [7] was found to be 25.6 µM; in experiment [8], 31 µM; in experiment [9], 24.8 µM; in experiment [10] it was 22.8 µM; in [11] it was 39 µM; in [12] it was 30.1 µM. In addition, the TGI is 27.4 µM in experiment [13]; 16.8 µM in [14]; 30.2 µM in experiment [15]; 23.3 µM in [16]; 31.6 µM in [17]; 27.7 µM in experiment [18]. In experiment [19], this molecule returned a TGI of 21.8 µM.
On to `Cc1cc(C)c2c(=O)n(CN3CCN(c4ccccc4)CC3)sc2n1`, for which the TGI in experiment [1] was > 100 µM; in [2] it was 41.3 µM; in experiment [3] it was 63.3 µM; in experiment [4], 70.1 µM; in experiment [5], 41.5 µM; in experiment [6], > 100 µM. Further, the TGI in experiment [7] was > 100 µM; in experiment [8] it was 44.1 µM; in experiment [9], 76.6 µM; in experiment [10], > 100 µM; in experiment [11], > 100 µM; in experiment [12], > 100 µM. Moreover, the TGI in experiment [13] is 99.6 µM; in experiment [14] it was 49.2 µM; in experiment [15] it was > 100 µM; in experiment [16], 25.7 µM; in [17], > 100 µM; in experiment [18] it was 87 µM. Besides, the TGI in experiment [19] is > 100 µM.
As for `Cc1ccc2c(=O)c(-c3nnsn3)c[nH]c2n1`, the TGI in experiment [1], in [2], in experiment [3], in experiment [4], in experiment [5] and in experiment [6] was > 100 µM each time. Moreover, the TGI in experiment [7], in experiment [8], in experiment [9], in experiment [10], in experiment [11] and in [12] was > 100 µM in each case. Further, the TGI in [13], in experiment [14], in experiment [15], in experiment [16], in experiment [17] and in [18] was > 100 µM in each case. In addition, the TGI in experiment [19] is > 100 µM.
For the molecule `C/C(=C/CNc1ncnc2c1ncn2CCC(=O)O)CO`, the TGI in experiment [1], in experiment [2], in experiment [3], in experiment [4], in [5] and in experiment [6] was > 100 µM each time. Besides, the TGI in experiment [7], in [8], in [9], in [10], in experiment [11] and in [12] was > 100 µM throughout. Further, the TGI in [13], in [14], in [15], in experiment [16], in experiment [17] and in experiment [18] was > 100 µM in each case. The TGI in [19] was > 100 µM.
As to `COC(=O)/C=C1/OC(c2ccc(Br)cc2)=C(Br)C1=O`, the TGI worked out at 33.6 µM in experiment [1]; 4.12 µM in experiment [2]; 25.4 µM in [3]; 32 µM in experiment [4]; 7.87 µM in experiment [5]; 17.5 µM in experiment [6]. The TGI in [7] stood at 28.1 µM; in experiment [8], 8.4 µM; in experiment [9] it was 10.8 µM; in experiment [10], 25.5 µM; in [11], 34.7 µM; in [12] it was 36.6 µM. Besides, the TGI in experiment [13] came to 9.71 µM; in experiment [14] it was 12.5 µM; in [15], 10.5 µM; in [16], 11.1 µM; in experiment [17], 28.9 µM; in [18], 17.6 µM. For the same molecule, in experiment [19], the TGI is 7.49 µM.
Turning to `C/C=C/C=C/C1=NN(c2cccc(S(=O)(=O)O)c2)C2(C1)C(Cl)C(=O)N2c1nc2ccccc2s1` (stereo not given), the TGI in experiment [1] is 28.3 µM; in [2] it was 35.3 µM; in experiment [3], 26.2 µM; in experiment [4], 35.6 µM; in experiment [5] it was 33.1 µM; in experiment [6], 36.2 µM. Further, the TGI in [7] was > 90.3 µM; in [8] it was 24.5 µM; in experiment [9], 29.4 µM; in [10], 27 µM; in experiment [11], 32 µM; in experiment [12] it was 31.6 µM. For the same molecule, the TGI was 24.7 µM in [13]; 34.8 µM in experiment [14]; > 54.8 µM in [15]; 24.3 µM in experiment [16]; 31 µM in experiment [17]; 32.1 µM in experiment [18]. In experiment [19], the TGI came out at 43.1 µM.
With `C=CC1(c2ccc(Cl)c(Cl)c2)OCCO1`, the TGI in [1] is > 100 µM; in experiment [2], > 100 µM; in experiment [3] it was > 100 µM; in [4], > 100 µM; in [5], 67.5 µM; in experiment [6], 22.8 µM. Also, the TGI in [7], in [8], in [9], in experiment [10], in experiment [11] and in experiment [12] was > 100 µM in each case. Besides, the TGI in [13], in experiment [14], in [15], in experiment [16], in experiment [17] and in experiment [18] was > 100 µM each time. Further, in experiment [19], the TGI is > 100 µM.
In the case of `NC(N)=NS(=O)(=O)c1ccc(Nc2c3ccccc3nc3ccc(C(=O)Nc4ccc(S(N)(=O)=O)cc4)cc23)cc1`, the TGI in experiment [1], in [2], in experiment [3], in [4], in [5] and in [6] was > 100 µM each time. Also, the TGI in experiment [7], in [8], in experiment [9], in experiment [10], in experiment [11] and in experiment [12] was > 100 µM each time. Moreover, the TGI in [13], in [14], in [15], in experiment [16], in [17] and in [18] was > 100 µM throughout. The TGI in [19] was > 100 µM.
Consider `COc1cc(O)c2c(=O)c3ccccc3n(C)c2c1`, for which the TGI was > 100 µM in experiment [1]; > 100 µM in [2]; > 100 µM in experiment [3]; > 100 µM in [4]; > 100 µM in experiment [5]; 79 µM in experiment [6]. The TGI in experiment [7] is 59.2 µM; in [8], > 100 µM; in [9], > 100 µM; in experiment [10], > 100 µM; in [11], > 100 µM; in experiment [12], > 100 µM. Further, the TGI in [13] was > 100 µM; in experiment [14], > 100 µM; in experiment [15] it was > 100 µM; in experiment [16], 51.4 µM; in experiment [17], > 100 µM; in experiment [18], > 100 µM. The TGI in [19] was > 100 µM.
